# Assay results as given in PubChem BioAssay AID624375 (Broad Institute, 2012).
# Results filed as inconclusive are left out. The source made the active and inactive calls.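 The calls were made as follows: active = fitted curve reaches -35% activity change at a concentration under twice the top valid dose, in every replicate test; inconclusive = replicate tests disagree on the call; inactive = the rest, including activity in the opposite direction.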
# Legend:
# [1] = system: EBV-transformed LCL viability, CellTiter-Glo ATP luminescence, 48 h; experiment: LCL growth inhibition by ATP luminescence – cell-based, CellTiter-Glo, dry powder, replicate tests, EBV LMP1 NF-kB inhibitor project, dose response (AID 624375)
# [2] = as above; conditions: EBV-transformed LCL viability, CellTiter-Glo ATP luminescence, 48 h
Structure (SMILES),AC35 [1],other results
C/C(=N\NC(=S)N1CC2CCC(CC2)C1)c1ccccn1,< 0.08 µM,
CC1=C(C(=O)OCc2ccc3c(c2)OCO3)C(c2ccc(F)cc2)NC(=O)N1 (centres undefined),,"activity change, negative = inhibition ([2]; at 19.5 µM (top of the series)): -2.46% (inactive)"
C/C(=N\NC(=S)Nc1ccccc1Cl)c1ccccn1,< 0.08 µM,
C=C1C[C@]23C[C@@]1(O)CC[C@@H]2c1cccc(C)c1[C@@H]3C(=O)O,9.19 µM,
C/C(=N\NC(=S)N1CCCCCC1)c1ccccn1,< 0.08 µM,
C[C@H]1CCCCO[C@@H](CN(C)CC2CCCCC2)[C@@H](C)CN([C@@H](C)CO)C(=O)c2cc(NC(=O)C3CCCCC3)ccc2O1,18.1 µM,
CC12CCC3C(CC=C4CC(O)CCC43CO)C1CCC2OC(=O)c1ccccc1 (centres undefined),45.6 µM,
C[C@H](CO)N1C[C@H](C)[C@@H](CN(C)Cc2ccc(-c3ccccc3)cc2)Oc2ccc(NC(=O)Nc3cccc4ccccc34)cc2CC1=O,28.8 µM,
c1ccc(-c2cn3c4c(sc3n2)CCCC4)cc1,,"activity change, negative = inhibition ([2]; at 19.5 µM (top of the series)): 6.87% (inactive)"
C/C(=N\NC(=S)N1CCCCC1)c1cccc(C)n1,< 0.08 µM,
CCN1CCN(C(c2cccnc2)c2cc(Cl)c3cccnc3c2O)CC1 (centres undefined),26.5 µM,
O=C1/C(=C/c2ccncc2)SC(=S)N1Cc1ccccc1,38.5 µM,
C[C@@H]1CN([C@@H](C)CO)C(=O)c2cc(NC(=O)Nc3ccc(C(F)(F)F)cc3)ccc2O[C@@H](C)CCCCO[C@H]1CN(C)Cc1ccc(C(F)(F)F)cc1,30.8 µM,
C/C=C/C/C=C/CCC(=O)[C@H]1O[C@H]1C(N)=O,,"activity change, negative = inhibition ([2]; at 10 µM (top of the series)): -4.56% (inactive)"
C/C(=N\NC(=S)N1CCCCC1)c1ccccn1,< 0.08 µM,
CC(C)=CCN(C(=O)C#Cc1ccccc1)[C@H](CO)c1ccccc1,8.22 µM,
C/C(=N\NC(=S)Nc1ccccc1)c1ccccn1,< 0.08 µM,
S=C(NCc1ccccn1)N/N=C/c1ccccn1,< 0.08 µM,
C/C(=N\NC(=S)N1CC2CCC(CC2)C1)c1ccncn1,< 0.08 µM,
C=CCN1Cc2ccccc2[C@@H]2OC(c3ccc(OCCCO)cc3)=N[C@]2(CCC(=O)OC(C)(C)C)C1=O,,"activity change, negative = inhibition ([2]; at 19.5 µM (top of the series)): 1.04% (inactive)"
C[C@@H]1CN([C@@H](C)CO)C(=O)c2cc(NC(=O)Nc3ccc(C(F)(F)F)cc3)ccc2O[C@@H](C)CCCCO[C@@H]1CN(C)CC1CCCCC1,45.7 µM,
Cc1ccnc(NC(=O)c2ccc(C(=O)c3ccccc3)cc2)c1,24.1 µM,

Structure (SMILES),AC35 [1],other results
C[C@@H]1CN([C@@H](C)CO)C(=O)c2cc(NC(=O)Nc3ccc4c(c3)OCO4)ccc2O[C@H]1CN(C)CC1CCCCC1,89.9 µM,
CCCSc1nnc2c3ccccc3n(Cc3ccccc3)c2n1,,"activity change, negative = inhibition ([2]; at 19.5 µM (top of the series)): -1.02% (inactive)"
S=C(N/N=C(\c1ccccc1)c1ccccn1)N(Cc1ccccn1)Cc1ccccn1,0.135 µM,
C[C@@H]1CCCCO[C@H](CN(C)C(=O)c2ccccc2)[C@H](C)CN([C@@H](C)CO)C(=O)c2cc(NC(=O)Nc3ccc(F)cc3)ccc2O1,,"activity change, negative = inhibition ([2]; at 19.5 µM (top of the series)): 2.16% (inactive)"
CSc1nc(-c2ccc(C)cc2)nc(C(Cl)Cl)n1,21.7 µM,
C=C1C[C@]23C[C@@]1(O)CC[C@H]2[C@@]12C=C[C@H](O)[C@@](C)(C(=O)O1)[C@H]2[C@@H]3C(=O)O,,"activity change, negative = inhibition ([2]; at 12 µM (top of the series)): 5.8% (inactive)"
C/C(=N\NC(=S)N1CCC1)c1ccccn1,< 0.08 µM,
Fc1ccc2c(c1)c1nnc(SCCN3CCOCC3)nc1n2Cc1ccccc1,4.38 µM,
C/C(=N\NC(=S)Nc1ccc(C)cc1)c1ccccn1,< 0.08 µM,
CCc1ccc(/C=C2\SC(=S)N(CCCC(=O)Nc3ccccn3)C2=O)cc1,,"activity change, negative = inhibition ([2]; at 19.5 µM (top of the series)): 3.41% (inactive)"
COc1ccc(-c2csc3ncnc(NCCN4CCOCC4)c23)cc1,,"activity change, negative = inhibition ([2]; at 19.5 µM (top of the series)): -6.51% (inactive)"
C/C(=N\NC(=S)Nc1cccc(C)c1)c1ccccn1,< 0.08 µM,
CCC(Sc1nnc2c3ccccc3n(Cc3ccc(Br)cc3)c2n1)C(=O)NCCCN1CCOCC1 (centres undefined),8.58 µM,
COCCCNC(=O)C(C)Sc1nnc2c3cc(C)ccc3n(Cc3ccccc3F)c2n1 (centres undefined),25 µM,
COc1ccccc1NC(=S)N/N=C(\C)c1ccccn1,< 0.08 µM,
C[C@H](CO)N1C[C@H](C)[C@@H](CN(C)CC2CC2)OCCCC[C@H](C)Oc2ccc(NC(=O)Nc3cccc4ccccc34)cc2C1=O,43 µM,
CCc1ccc(/C=C/C(=O)C2C(=O)c3ccccc3C2=O)cc1,,"activity change, negative = inhibition ([2]; at 19.5 µM (top of the series)): 10.9% (inactive)"
C/C(=N\NC(=S)N1CCCC1)c1ccccn1,< 0.08 µM,
COc1ccc2[nH]c(C(=O)N/N=C/c3ccc(O)cc3O)cc2c1,26.7 µM,
C[C@@H]1CCCCO[C@H](CN(C)C(=O)NC2CCCCC2)[C@H](C)CN([C@@H](C)CO)C(=O)c2cc(NC(=O)C3CCCCC3)ccc2O1,22.1 µM,
C[C@@H]1CN([C@@H](C)CO)C(=O)c2cccc(NC(=O)Nc3cccc4ccccc34)c2O[C@H]1CN(C)C(=O)Nc1ccc(C(F)(F)F)cc1,29.8 µM,
Cc1ccc(NC(=O)C2CCN(S(=O)(=O)c3ccc4c(c3)NC(=O)C(C)S4)CC2)cc1Cl (centres undefined),45.7 µM,

Structure (SMILES),AC35 [1],other results
CC(=O)Nc1nc(C)c(-c2csc(Nc3ccc(O)cc3)n2)s1,22.8 µM,
COc1ccc(NC(=O)c2ccc(OC(C)C(=O)O)cc2)cc1Cl (centres undefined),34.1 µM,
C/C(=N\NC(=S)N1CCN(C2CCCCCC2)CC1)c1ccccn1,< 0.08 µM,
Nc1ccn([C@@H]2O[C@H](CO)[C@@H](O)C2O)c(=O)n1 (some centres undefined),26.1 µM,
O=C(CSc1nnc2c3ccccc3n(Cc3ccccc3)c2n1)NCc1ccco1,44.1 µM,
C/C(=N\NC(=S)N1CC2CCC(CC2)C1)c1cnccn1,< 0.08 µM,
O=c1[nH]c(=O)n([C@H]2C[C@H](O)[C@@H](CO)O2)cc1C(F)(F)F,10.1 µM,
C[C@H](CO)N1C[C@H](C)[C@H](CN(C)C(=O)Nc2ccc(C(F)(F)F)cc2)OCCCC[C@H](C)Oc2ccc(NC(=O)Nc3ccc(F)cc3)cc2C1=O,21.5 µM,
CCc1sc(C(=O)Nc2ncccc2O)cc1C,,"activity change, negative = inhibition ([2]; at 19.5 µM (top of the series)): -13.2% (inactive)"
C[C@@H]1CCCCO[C@@H](CN(C)Cc2ccccc2)[C@H](C)CN([C@H](C)CO)C(=O)c2cc(NC(=O)Nc3ccc4c(c3)OCO4)ccc2O1,,"activity change, negative = inhibition ([2]; at 19.5 µM (top of the series)): 1.71% (inactive)"
Cc1c(NC(=O)c2cccc(NC(=O)COc3ccccc3C#N)c2)c(=O)n(-c2ccccc2)n1C,45.6 µM,
CSC(=S)N/N=C(\C)c1cccc(C)n1,0.687 µM,
O=C(CCc1ccccc1)NC(c1cccs1)c1cc(Cl)c2cccnc2c1O (centres undefined),,"activity change, negative = inhibition ([2]; at 19.5 µM (top of the series)): 4.93% (inactive)"
CCn1c2ccccc2c2cc(/C=N/n3cnnc3)ccc21,,"activity change, negative = inhibition ([2]; at 19.5 µM (top of the series)): -4.23% (inactive)"
COc1cccc(/C=N/Nc2ncnc3c2ncn3Cc2ccccc2)c1O,,"activity change, negative = inhibition ([2]; at 19.5 µM (top of the series)): -7.51% (inactive)"
C/C(=N\NC(=S)N1CCN(c2ccccn2)CC1)c1ccccn1,< 0.08 µM,
C[C@@H]1CCCCO[C@H](CN(C)S(=O)(=O)c2ccccc2)[C@@H](C)CN([C@@H](C)CO)C(=O)c2cc(N(C)C)ccc2O1,,"activity change, negative = inhibition ([2]; at 19.5 µM (top of the series)): -2.16% (inactive)"
COc1ccc(-c2cc3nc4n(c(=O)c3s2)CCC4)cc1,,"activity change, negative = inhibition ([2]; at 19.5 µM (top of the series)): -3.35% (inactive)"
C/C(=N\NC(=S)N1CC2CCC(CC2)C1)c1cccc(C)n1,0.409 µM,
C/C(=N\NC(=S)Nc1cccc(Cl)c1)c1ccccn1,< 0.08 µM,
